Drawing on PMC6197744, “Triazolo[4,5-d]pyrimidines as Validated General Control Nonderepressible 2 (GCN2) Protein Kinase Inhibitors Reduce Growth of Leukemia Cells” (Computational and Structural Biotechnology Journal, 2018), this text covers inhibition and Papp for two compounds.

Data set [1] has as its system HCC-2998. In words: NCI-60 one-dose screen. The format is cell-based. To be noted: Homo sapiens; Colon HCC-2998, 10 μM, 48 h; read-out: Percent growth inhibition. The protocol:
(§1) Compounds 1 and 2 were submitted to the National Cancer Institute NCI-60 Tumor Cell Screening Program (NCI number 800,700 and 800,701, respectively) for evaluation against the 60 cell line NCI panel at a single dose of 10 μM. […] Leukemia and breast cancer cell lines comprised the only cancer groups that were uniformly sensitive to both 1 and 2, with the greatest sensitivity seen in the leukemia SR cell line.
(§2) Compounds 1 and 2 were submitted to the NCI for growth inhibition screening against its panel of 60 cancer cell lines. The NCI screening protocol has extensively been described [[53], [54], [55], [56]]. Briefly, cancerous cell lines were grown in RPMI 1640 medium containing 5% fetal bovine serum and 2 mM L-glutamine. Depending on the doubling time of each cell line, 5000–40,000 cells were seeded in 96-well plates for 24 h. Cells were then treated with compounds 1 or 2 at a concentration of 10 μM and incubated for 48 h at 37 °C in a humidified atmosphere containing 5% CO2. The cells were then fixed and stained with sulforhodamine B (SRB) to determine their viability. The data were analyzed using a program called COMPARE to determine the percent growth inhibition of each compound.

In data set [2] the test system is 786-0. In words: NCI-60 one-dose screen. In kind it is cell-based. To be noted: Homo sapiens; Renal 786-0, 10 μM, 48 h; read-out: Percent growth inhibition. The protocol:
as §1, §2

The test system of data set [3] is A498. Put plainly: NCI-60 one-dose screen. In kind it is cell-based. The settings on record: Homo sapiens; Renal A498, 10 μM, 48 h; read-out: Percent growth inhibition. On the procedure:
as §1, §2

Data set [4] deals with MOLT-4. Put plainly: NCI-60 one-dose screen. In kind it is cell-based. To be noted: Homo sapiens; Leukemia MOLT-4, 10 μM, 48 h; read-out: Percent growth inhibition. On the procedure:
as §1, §2

In data set [5] the test system is OVCAR-5. In words: NCI-60 one-dose screen. In kind it is cell-based. To be noted: Homo sapiens; Ovarian OVCAR-5, 10 μM, 48 h; read-out: Percent growth inhibition. On the procedure:
as §1, §2

For data set [6], the target named is T1, PERK (Homo sapiens, UniProt Q9NZJ5).
T1 construct: purchased Reaction Biology Corporation (Malvern, PA)
T1 sequence (Q9NZJ5 30-1116): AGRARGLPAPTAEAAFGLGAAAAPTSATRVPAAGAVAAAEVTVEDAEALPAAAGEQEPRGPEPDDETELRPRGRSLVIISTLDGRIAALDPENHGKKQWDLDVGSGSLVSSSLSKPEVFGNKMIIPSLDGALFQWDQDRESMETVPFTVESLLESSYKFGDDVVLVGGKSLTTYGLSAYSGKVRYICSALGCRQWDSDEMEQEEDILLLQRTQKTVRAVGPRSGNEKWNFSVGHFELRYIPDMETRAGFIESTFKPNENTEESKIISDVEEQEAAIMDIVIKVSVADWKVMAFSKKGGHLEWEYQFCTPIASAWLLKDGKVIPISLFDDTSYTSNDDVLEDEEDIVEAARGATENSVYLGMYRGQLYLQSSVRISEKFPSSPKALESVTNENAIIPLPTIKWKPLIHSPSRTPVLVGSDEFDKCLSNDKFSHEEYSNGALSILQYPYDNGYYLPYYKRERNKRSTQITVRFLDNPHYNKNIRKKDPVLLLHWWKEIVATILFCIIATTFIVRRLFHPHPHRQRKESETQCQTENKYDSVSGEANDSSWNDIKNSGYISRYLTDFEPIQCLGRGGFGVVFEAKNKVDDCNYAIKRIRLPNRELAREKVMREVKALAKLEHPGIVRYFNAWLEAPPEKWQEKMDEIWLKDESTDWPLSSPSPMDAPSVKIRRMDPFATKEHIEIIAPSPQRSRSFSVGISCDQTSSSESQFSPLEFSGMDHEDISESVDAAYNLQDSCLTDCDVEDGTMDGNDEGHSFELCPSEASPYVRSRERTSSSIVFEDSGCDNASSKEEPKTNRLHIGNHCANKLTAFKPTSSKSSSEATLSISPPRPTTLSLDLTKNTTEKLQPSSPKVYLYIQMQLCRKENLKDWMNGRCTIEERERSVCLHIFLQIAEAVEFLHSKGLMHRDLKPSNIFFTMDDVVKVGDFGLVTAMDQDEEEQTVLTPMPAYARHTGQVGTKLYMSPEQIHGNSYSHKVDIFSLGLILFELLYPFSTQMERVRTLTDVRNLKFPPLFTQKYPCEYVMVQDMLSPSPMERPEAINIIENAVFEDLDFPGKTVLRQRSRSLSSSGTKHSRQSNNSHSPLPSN
In words: radiometric HotSpot kinase assay. To be noted: 10 μM compound, 10 μM ATP; read-out: % Enzyme inhibition at 10 μM, PERK. In kind it is biochemical. The protocol: In vitro compound profiling for recombinant GCN2, PERK, HRI, PKR, or IRE1 kinases were performed at Reaction Biology Corporation (Malvern, PA) using the HotSpot kinase assay. Briefly, all compounds provided for testing were dissolved in 10 mM DMSO stock solutions. […] Specific kinase/substrate mixtures and required cofactors were prepared in reaction buffer (20 mM Hepes (pH 7.5), 10 mM MgCl2, 1 mM EGTA, 0.02% Brij35, 0.02 mg/ml BSA, 0.1 mM Na3VO4, 2 mM DTT, 1% DMSO). Compounds were added to the kinase reaction mixture by Acoustic technology (Echo550; nanoliter range) and incubated for 20 min at room temperature. […] The reaction was incubated or 2 h at room temperature and kinase activity was detected by filter-binding method. IC50 values and curves were generated with GraphPad Prism 7 (GraphPad software).

Data set [7] can be described thus: Permeability assay (PAMPA). In kind it is in vitro ADME. The settings on record: pH 7.4, 25 °C, <10 low, >10 high permeability. The protocol: GCN2 compound permeability was determined by PAMPA and was performed by Pharmaron, Inc. (Beijing, China). All compounds and control stock solutions were prepared in DMSO at a concentration of 10 mM. Testosterone and methotrexate were used as control compounds. Compound stock solutions were diluted with PBS (pH 7.4) to a final concentration of 10 μM. A 1.8% solution (w/v) of lecithin in dodecane was prepared and sonicated to ensure a complete dissolution. 5 μL of the lecithin/dodecane mixture were pipetted into each acceptor plate well (top compartment). Immediately after the application of the artificial membrane (within 10 min), 300 μL of PBS (pH 7.4) solution were added to each well of the acceptor plate. 300 μL of drug-containing solutions were added to each well of the donor plate (bottom compartment) in triplicate. The plate lid was replaced and incubated at 25 °C, 60 rpm for 16 h. After incubation, aliquots of 50 μL from each well of acceptor and donor plate were transferred into a 96-well plate and 200 μL of methanol (containing IS: 100 nM Alprazolam, 200 nM Labetalol and 2 μM Ketoprofen) was added to each well. The plate was vortexed at 750 rpm for 100 s. Samples were centrifuged at 3220g for 20 min. The compound concentrations were determined by LC/MS/MS. The effective permeability (Pe), in units of centimeter per second were calculated using the following equation: logPe=logC×−ln1−drugacceptor/drugequilibrium

Take `CCn1cc(Nc2ncc3nnn(-c4ccc(C(=O)OC)cc4)c3n2)cn1` [Compound 1, Methyl 4-(5-((1-ethyl-1H-pyrazol-4-yl)amino)-3H-[1,2,3]triazolo[4,5-d]pyrimidin-3-yl)benzoate]: the inhibition at 10 µM in data set [1] is -3.6%; in data set [2] it was -6.68%; in data set [3], 10.5%; in data set [4] it was 21.6%; in data set [5] it was -5.43%; in data set [6], 24%. This compound returned a Papp at 16 h, 10 μM in data set [7] of 16 ×10⁻⁶ cm/s.

As to `CCOc1ccc(-n2nnc3cnc(Nc4cnn(CC)c4)nc32)cc1` [Compound 2, 3-(4-Ethoxyphenyl)-N-(1-ethyl-1H-pyrazol-4-yl)-3H-[1,2,3]triazolo[4,5-d]pyrimidin-5-amine], the inhibition at 10 µM is -2.67% in data set [1]; 21.7% in data set [2]; 44.1% in data set [3]; 23.2% in data set [4]; -11.8% in data set [5]; below 10% in data set [6]. For the same compound, the Papp at 16 h, 10 μM in data set [7] came to 15.1 ×10⁻⁶ cm/s.

Usually inhibition stands for the relative decrease from the control value, in per cent. As a reminder, the Papp is the rate of passage across a membrane or cell layer, normalised by area and donor concentration.
